Assay results as given in patent US9895346B2, “Applications of substituent benzyloxy group containing ether compounds for preparing antitumor drugs” (Sinochem Corporation, priority 2013, dated 2018).

Assays:
[1] = system: bladder cancer cell line T24; experiment: In vitro cell inhibition assay (crystal violet), bladder cancer T24; type: cell-based, human
Source text: (§1) In vitro Cell inhibition assay is as follows:
(§2) The human cancer cell lines used for this assay were bladder cancer J82, T24, prostate cancer LNCap, PC-3, lung cancer A549, H157, H460, H520, colon cancer HCT8, HCT116, RkO, and leukemia HL-60, etc.
(§3) In vitro cell culture technology was selected for the determination of inhibition rate bladder cancer cell lines J82 and T24, prostate cancer cell lines LNCap and PC-3, lung cancer cell lines A549, H157, H460 and H520. 1000 to 3000 cells were inoculated to 24-well plate, followed by addition of 1 mL culture medium well known to researchers in this field to each well, the cells were cultured in 5% incubator for 24 hours at 37° C., then the different concentration compounds and controls were added to each well. It should be noted that the added volume is not more than 0.5% of total volume. After completion of addition, the cells continued being cultured in incubator for one week, the culture medium was removed and washed by cold PBS of 1 mL once, and then fixed for 10 minutes at room temperature with 1% formalin, followed by wash with PBS of 1 mL. After fixation, stain was carried out with 0.1% crystal violet for 30 minutes. 0.1% crystal violet was recycled. The stained cells were washed gently with deionized water, dried at room temperature and kepted. The inhibition rate was calculated according to the foiling equation. The controls are Selumetinib (AZD6244), Gefitinib, Cisplatin. Inhibition rate=number of left cells each treatment/number of left cells of untreated control×100%

[2] = system: prostate cancer cell line LNCap; experiment: In vitro cell inhibition assay (crystal violet), prostate cancer LNCap; type: cell-based, human
Source text: as §1, §2, §3

[3] = system: lung cancer cell line A549; experiment: In vitro cell inhibition assay (crystal violet), lung cancer A549; type: cell-based, human
Source text: as §1, §2, §3

colon cancer HCT116 = experiment: In vitro cell inhibition assay, colon cancer HCT116; type: cell-based, human; details: Homo sapiens, read-out: Inhibition rate on human cancer cells
Source text: as §1, §2

colon cancer RkO = experiment: In vitro cell inhibition assay, colon cancer RkO; type: cell-based, human; details: Homo sapiens, read-out: Inhibition rate on human cancer cells
Source text: as §1, §2

[4] = system: prostate cancer cell line PC-3; experiment: In vitro cell inhibition assay (crystal violet), prostate cancer PC-3; type: cell-based, human
Source text: as §1, §2, §3

[5] = system: bladder cancer cell line J82; experiment: In vitro cell inhibition assay (crystal violet), bladder cancer J82; type: cell-based, human
Source text: as §1, §2, §3

colon cancer HCT8 = experiment: In vitro cell inhibition assay, colon cancer HCT8; type: cell-based, human; details: Homo sapiens, read-out: Inhibition rate on human cancer cells
Source text: as §1, §2

[6] = system: lung cancer cell line H157; experiment: In vitro cell inhibition assay (crystal violet), lung cancer H157; type: cell-based, human
Source text: as §1, §2, §3

[7] = system: lung cancer cell line H520; experiment: In vitro cell inhibition assay (crystal violet), lung cancer H520; type: cell-based, human
Source text: as §1, §2, §3

[8] = system: lung cancer cell line H460; experiment: In vitro cell inhibition assay (crystal violet), lung cancer H460; type: cell-based, human
Source text: as §1, §2, §3

[9] = system: human leukemia HL-60 cells; experiment: Proliferation inhibition of human leukemia HL-60 cells, MTT method; type: cell-based; details: 48 h incubation, OPTI-MEM medium
Description: The inhibition rate of human leukemia HL-60 cells was evaluated by regular MTT method. The human leukemia HL-60 cells were picked up from cell incubator, after washed for twice using PBS, cells were digested by 0.25% trypsin, and then add medium to terminate the digestion. After cells were collected using centrifuge and re-suspended, counting cells under inverted microscope and adding medium to make a density which was 5×10^4 cells/mL. After 100 μL aliquots were added to each well of 96-well microtiter plates, cells were cultured in 5% incubator for overnight at 37° C., then the different concentration compounds were added to each well. After incubation for 48 h, MTT solution was added to each well and plates were then incubated for 4 h. The MTT tetrazolium was reduced to formazan by living cells. Then the formazan crystals were dissolved though adding DMSO to each well. The absorbance was read at 570 nm with a microplate reader.

[10] = Homo sapiens, T24, 5.0 μM, read-out: Inhibition rate on human cancer cells
[11] = Homo sapiens, 5.0 μM, read-out: Inhibition rate on human cancer cells
[12] = Homo sapiens, PC-3, 5.0 μM, read-out: Inhibition rate on human cancer cells
[13] = Homo sapiens, J82, 5.0 μM, read-out: Inhibition rate on human cancer cells

Cn1cnc2c(F)c(Nc3ccc(Br)cc3Cl)c(C(=O)NOCCO)cc21 [Selumetinib, reference compound]
70%: inhibition at 5 µM [1, 10] | inhibition at 5 µM [5, 13]
20%: inhibition at 5 µM [2, 11] | inhibition at 1 µM (colon cancer HCT8; HCT 8, 1.0 μM) | inhibition at 5 µM ([6]; Homo sapiens, NCI-H157, H157, 5.0 μM, read-out: Inhibition rate on human cancer cells) | inhibition at 5 µM ([7]; Homo sapiens, NCI-H520, H520, 5.0 μM, read-out: Inhibition rate on human cancer cells)
60%: inhibition at 5 µM ([8]; Homo sapiens, NCI-H460, H460, 5.0 μM, read-out: Inhibition rate on human cancer cells)
50%: inhibition at 0.25 µM (colon cancer HCT116; HCT 116, 0.25 μM) | inhibition at 5 µM (colon cancer HCT8; HCT 8, 5.0 μM)
0%: inhibition at 0.25 µM ([3]; Homo sapiens, A549, 0.25 μM, read-out: Inhibition rate on human cancer cells) | inhibition at 0.5 µM ([3]; Homo sapiens, A549, 0.5 μM, read-out: Inhibition rate on human cancer cells) | inhibition at 1 µM ([3]; Homo sapiens, A549, 1.0 μM, read-out: Inhibition rate on human cancer cells) | inhibition at 2.5 µM ([3]; Homo sapiens, A549, 2.5 μM, read-out: Inhibition rate on human cancer cells) | inhibition at 5 µM [4, 12] | inhibition at 0.25 µM ([8]; Homo sapiens, NCI-H460, H460, 0.25 μM, read-out: Inhibition rate on human cancer cells) | inhibition at 0.5 µM ([8]; Homo sapiens, NCI-H460, H460, 0.5 μM, read-out: Inhibition rate on human cancer cells) | inhibition at 1 µM ([8]; Homo sapiens, NCI-H460, H460, 1.0 μM, read-out: Inhibition rate on human cancer cells) | inhibition at 2.5 µM ([8]; Homo sapiens, NCI-H460, H460, 2.5 μM, read-out: Inhibition rate on human cancer cells)
95%: inhibition at 5 µM (colon cancer RkO; 5.0 μM)
40%: inhibition at 2.5 µM (colon cancer HCT8; HCT 8, 2.5 μM)
90%: inhibition at 5 µM (colon cancer HCT116; HCT 116, 5.0 μM) | inhibition at 2.5 µM (colon cancer RkO; 2.5 μM)
85%: inhibition at 2.5 µM (colon cancer HCT116; HCT 116, 2.5 μM) | inhibition at 1 µM (colon cancer RkO; 1.0 μM)
75%: inhibition at 0.5 µM (colon cancer HCT116; HCT 116, 0.5 μM)
30%: inhibition at 0.25 µM (colon cancer RkO; 0.25 μM)
80%: inhibition at 1 µM (colon cancer HCT116; HCT 116, 1.0 μM) | inhibition at 0.5 µM (colon cancer RkO; 0.5 μM)
10%: inhibition at 5 µM ([3]; Homo sapiens, A549, 5.0 μM, read-out: Inhibition rate on human cancer cells)

CO/C=C(/C(=O)OC)c1ccccc1COc1cc(C(F)(F)F)nc(Nc2ccc(Cl)cc2Cl)n1 [compound A, reference compound]
85%: inhibition at 1 µM ([4]; Homo sapiens, PC-3, 1.0 μM, read-out: Inhibition rate on human cancer cells)
100%: inhibition at 1 µM ([1]; Homo sapiens, T24, 1.0 μM, read-out: Inhibition rate on human cancer cells) | inhibition at 2.5 µM ([1]; Homo sapiens, T24, 2.5 μM, read-out: Inhibition rate on human cancer cells) | inhibition at 5 µM [1, 10] | inhibition at 1 µM ([2]; Homo sapiens, 1.0 μM, read-out: Inhibition rate on human cancer cells) | inhibition at 2.5 µM ([2]; Homo sapiens, 2.5 μM, read-out: Inhibition rate on human cancer cells) | inhibition at 5 µM [2, 11] | inhibition at 2.5 µM ([4]; Homo sapiens, PC-3, 2.5 μM, read-out: Inhibition rate on human cancer cells) | inhibition at 5 µM [4, 12] | inhibition at 2.5 µM ([5]; Homo sapiens, J82, 2.5 μM, read-out: Inhibition rate on human cancer cells) | inhibition at 5 µM [5, 13]
50%: inhibition at 0.5 µM ([5]; Homo sapiens, J82, 0.5 μM, read-out: Inhibition rate on human cancer cells)
0%: inhibition at 0.5 µM ([1]; Homo sapiens, T24, 0.5 μM, read-out: Inhibition rate on human cancer cells) | inhibition at 0.5 µM ([2]; Homo sapiens, 0.5 μM, read-out: Inhibition rate on human cancer cells) | inhibition at 0.5 µM ([4]; Homo sapiens, PC-3, 0.5 μM, read-out: Inhibition rate on human cancer cells) | inhibition at 0.25 µM ([5]; Homo sapiens, J82, 0.25 μM, read-out: Inhibition rate on human cancer cells)
95%: inhibition at 1 µM ([5]; Homo sapiens, J82, 1.0 μM, read-out: Inhibition rate on human cancer cells)

CO/C=C(/C(=O)OC)c1ccccc1COc1cc(-c2ccc(Cl)cc2)nn1C [pyraoxystrobin]
100%: Inhibition rate on human cancer cells ([1]; T24, 0.25 μM) | Inhibition rate on human cancer cells ([1]; T24, 0.5 μM) | Inhibition rate on human cancer cells ([1]; T24, 1.0 μM) | Inhibition rate on human cancer cells ([1]; T24, 2.5 μM) | Inhibition rate on human cancer cells ([1]; T24, 5.0 μM) | Inhibition rate on human cancer cells ([2]; 0.25 μM) | Inhibition rate on human cancer cells ([2]; 0.5 μM) | Inhibition rate on human cancer cells ([2]; 1.0 μM) | Inhibition rate on human cancer cells ([2]; 2.5 μM) | Inhibition rate on human cancer cells ([2]; 5.0 μM) | Inhibition rate on human cancer cells ([4]; PC-3, 0.25 μM) | Inhibition rate on human cancer cells ([4]; PC-3, 0.5 μM) | Inhibition rate on human cancer cells ([4]; PC-3, 1.0 μM) | Inhibition rate on human cancer cells ([4]; PC-3, 2.5 μM) | Inhibition rate on human cancer cells ([4]; PC-3, 5.0 μM) | Inhibition rate on human cancer cells ([5]; J82, 0.5 μM) | Inhibition rate on human cancer cells ([5]; J82, 1.0 μM) | Inhibition rate on human cancer cells ([5]; J82, 2.5 μM) | Inhibition rate on human cancer cells ([5]; J82, 5.0 μM)
70%: Inhibition rate on human cancer cells ([5]; J82, 0.25 μM)

jiaxiangjunzhi [Compound 28-5]
73.8%: Proliferation inhibitory effect on human leukemia HL-60 cell (%) ([9]; concentration 100 μM)
100%: Inhibition rate on human cancer cells ([1]; T24, 0.25 μM) | Inhibition rate on human cancer cells ([1]; T24, 0.5 μM) | Inhibition rate on human cancer cells ([1]; T24, 1.0 μM) | Inhibition rate on human cancer cells ([1]; T24, 2.5 μM) | Inhibition rate on human cancer cells ([1]; T24, 5.0 μM) | Inhibition rate on human cancer cells ([2]; 1.0 μM) | Inhibition rate on human cancer cells ([2]; 2.5 μM) | Inhibition rate on human cancer cells ([2]; 5.0 μM) | Inhibition rate on human cancer cells ([3]; A549, 2.5 μM) | Inhibition rate on human cancer cells ([3]; A549, 5.0 μM) | Inhibition rate on human cancer cells ([4]; PC-3, 1.0 μM) | Inhibition rate on human cancer cells ([4]; PC-3, 2.5 μM) | Inhibition rate on human cancer cells ([4]; PC-3, 5.0 μM) | Inhibition rate on human cancer cells ([5]; J82, 2.5 μM) | Inhibition rate on human cancer cells ([5]; J82, 5.0 μM) | Inhibition rate on human cancer cells ([6]; H157, 0.5 μM) | Inhibition rate on human cancer cells ([6]; H157, 1.0 μM) | Inhibition rate on human cancer cells ([6]; H157, 2.5 μM) | Inhibition rate on human cancer cells ([6]; H157, 5.0 μM) | Inhibition rate on human cancer cells ([7]; H520, 2.5 μM) | Inhibition rate on human cancer cells ([7]; H520, 5.0 μM) | Inhibition rate on human cancer cells ([8]; H460, 0.5 μM) | Inhibition rate on human cancer cells ([8]; H460, 1.0 μM) | Inhibition rate on human cancer cells ([8]; H460, 2.5 μM) | Inhibition rate on human cancer cells ([8]; H460, 5.0 μM)
70%: Inhibition rate on human cancer cells ([7]; H520, 0.25 μM)
59.3%: Proliferation inhibitory effect on human leukemia HL-60 cell (%) ([9]; concentration 10 μM)
31.7%: Proliferation inhibitory effect on human leukemia HL-60 cell (%) ([9]; concentration 1 μM)
80%: Inhibition rate on human cancer cells ([3]; A549, 1.0 μM) | Inhibition rate on human cancer cells ([5]; J82, 1.0 μM) | Inhibition rate on human cancer cells ([7]; H520, 0.5 μM)
90%: Inhibition rate on human cancer cells ([7]; H520, 1.0 μM)
